Test system: tumor-bearing mouse (M-MSV/M-MuLV rhabdomyosarcoma)
Assay: microPET/microCT imaging of a tumor-bearing mouse injected with [18F]FDG
Format: in vivo
Conditions: 272 microCi via tail vein; 1-h uptake and non-specific clearance; imaged 15 minutes; FDG produced in a microfluidic chip
Text: Mouse Model. The tumor model used was a strongly immunogenic, non-metastasizing retrovirally-induced rhabdomyosarcoma (M-MSV/M-MuLV) (Fletcher et al., 2002, Tetrahedron 58:4735). MSV is a replication-defective, acutely transforming retrovirus carried with helper activity provided by M-MuLV, which encodes the gag, pol, and env components that are necessary for cell infection and replication (Worz et al., 2001, Chemical Engineering Science 56:1029). Rhabdomyosarcomas develop at the intramuscular inoculation site after a short latency period (7-10 days) and regress over a period of 4-5 wk following the induction of a strong immune reaction in immunocompetent adult mice. These lesions were characterized by a mixture of virus-infected myocytes and a large infiltrate of lymphocytes, granulocytes, and macrophages. Both cellular and humoral immune responses induced are dependent on presentation by H-2 D^b alleles (Watts et al., 2003, Current Opinion in Chemical Biology 7:380). Rejection was mediated by CD8+ cytolytic T cells, which recognize peptides from the gag and env proteins of M-MuLV, and requires help from CD4+ T cells (Kobayashi et al., 2004, Science 304:1305; Chan et al., 2003, Nano Letters 3:199; Kawaguchi et al., 2005, Angewandte Chemie-International Edition 44:2413)
Mouse imaging. The tumor bearing mouse was injected with 272 microCi of FDG via tail vein. […]

## 2-deoxy-2-[^18F]fluoro-D-glucose [[^18F]FDG]
  Organs visible in microPET/microCT image: bladder, kidneys, heart, tumor and two lymph nodes
